{"source": "paper PMC3731160", "about": "(ACS medicinal chemistry letters, 2013)", "key": {"EP4 receptor": {"biological_target": "EP4 receptor (Homo sapiens, UniProt P35408)", "sequence (P35408 whole entry)": "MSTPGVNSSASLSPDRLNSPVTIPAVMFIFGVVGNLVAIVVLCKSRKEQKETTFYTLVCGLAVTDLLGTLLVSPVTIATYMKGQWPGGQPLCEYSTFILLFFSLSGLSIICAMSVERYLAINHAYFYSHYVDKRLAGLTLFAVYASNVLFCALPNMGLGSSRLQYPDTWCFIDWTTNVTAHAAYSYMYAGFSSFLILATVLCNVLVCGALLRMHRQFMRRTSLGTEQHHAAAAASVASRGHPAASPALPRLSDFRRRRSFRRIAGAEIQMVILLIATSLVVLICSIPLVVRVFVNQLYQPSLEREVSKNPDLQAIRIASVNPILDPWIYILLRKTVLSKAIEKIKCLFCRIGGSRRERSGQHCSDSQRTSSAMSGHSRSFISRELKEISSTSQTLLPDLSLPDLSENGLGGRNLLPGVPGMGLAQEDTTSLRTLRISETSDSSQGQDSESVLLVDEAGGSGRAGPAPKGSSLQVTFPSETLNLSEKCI", "details": "for inhibition of EP4 receptor: up to 40 µM, agonist saturated conditions"}, "P388D1 macrophages": {"test_system": "P388D1 macrophages", "test": "Butaprost-induced mRNA expression of inflammatory markers in P388D1 macrophages", "format": "cell-based"}, "IP receptor": {"biological_target": "IP receptor (Homo sapiens, UniProt P43119)", "sequence (P43119 whole entry)": "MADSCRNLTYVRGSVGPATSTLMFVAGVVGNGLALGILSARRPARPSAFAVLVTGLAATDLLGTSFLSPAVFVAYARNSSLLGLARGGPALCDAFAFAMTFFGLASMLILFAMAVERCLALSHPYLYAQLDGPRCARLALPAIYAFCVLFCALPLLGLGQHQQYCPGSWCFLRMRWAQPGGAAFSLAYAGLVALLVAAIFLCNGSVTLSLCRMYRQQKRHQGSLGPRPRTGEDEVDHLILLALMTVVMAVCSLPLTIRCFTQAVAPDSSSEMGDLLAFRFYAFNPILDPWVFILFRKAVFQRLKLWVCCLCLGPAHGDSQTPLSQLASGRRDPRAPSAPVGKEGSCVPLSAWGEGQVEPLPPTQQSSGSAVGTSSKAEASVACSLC", "test": "cell-based"}, "[1]": {"test": "Metabolic stability in pooled human liver microsomes", "details": "1 and 10 µM"}, "[2]": {"test": "Metabolic stability in pooled mouse liver microsomes", "details": "1 and 10 µM"}, "β2-Adrenergic receptors": {"test_system": "β2-Adrenergic receptors", "test": "β2-adrenergic receptor counter assay", "details": "up to 40 µM, agonist saturated conditions"}, "[3]": {"test": "Pharmacokinetics and brain permeability in female C57Bl/6 mice", "details": "1h and 2h"}, "[4]": {"test": "Aqueous solubility in PBS buffer by nephelometry", "details": "pH 7"}, "EP2 receptor": {"biological_target": "EP2 receptor (Homo sapiens, UniProt P43116)", "sequence (P43116 whole entry)": "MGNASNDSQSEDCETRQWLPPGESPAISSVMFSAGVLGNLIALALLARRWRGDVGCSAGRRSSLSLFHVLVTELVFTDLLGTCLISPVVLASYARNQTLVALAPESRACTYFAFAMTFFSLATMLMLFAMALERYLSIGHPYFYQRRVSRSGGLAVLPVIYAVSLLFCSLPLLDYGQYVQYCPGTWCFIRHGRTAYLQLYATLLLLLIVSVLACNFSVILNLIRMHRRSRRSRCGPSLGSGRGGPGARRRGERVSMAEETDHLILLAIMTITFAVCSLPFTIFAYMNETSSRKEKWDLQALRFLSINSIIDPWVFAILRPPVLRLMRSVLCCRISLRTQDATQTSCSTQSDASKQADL", "test": "PGE2-induced cAMP accumulation", "format": "cell-based", "details": "competitive antagonism of EP2"}}, "note": "Read-outs that look alike come from different tables or passages of the source."}
{"smiles": "COc1cc(NS(=O)(=O)c2ccc(NC(=S)NC(=O)c3sc4cc(F)ccc4c3Cl)cc2)nc(OC)n1", "note": "[compound 8]", "values": [{"measurement": "KB (µM) EP4", "setting": "EP4 receptor; Schild KB, average of 2–5 independent experiments", "result": "submicromolar"}]}
{"smiles": "CCCC1([C@H](O)C/C=C/[C@H]2[C@H](O)CC(=O)[C@@H]2CCCCCCC(=O)OC)CCC1", "note": "[butaprost]", "values": [{"measurement": "mRNA expression of COX-2, IL-1β, IL-6, IL-12 (p40), IL-17, IL-23, TNF-α", "setting": "P388D1 macrophages; butaprost 10 µM, 2 h", "result": "significantly elevated"}, {"measurement": "expression of EP2 receptor mRNA", "setting": "P388D1 macrophages; butaprost, 2h", "result": "only a slight increase"}]}
{"smiles": "CCc1nnc(NS(=O)(=O)c2ccc(NC(=S)NC(=O)/C=C/c3ccc(F)cc3)cc2)s1", "note": "[TG6-129, (E)-N-((4-(N-(5-ethyl-1,3,4-thiadiazol-2-yl)sulfamoyl)phenyl)carbamothioyl)-3-(4-fluorophenyl)acrylamide]", "values": [{"measurement": "Kb", "setting": "IP receptor", "result": 0.199, "unit": "µM"}, {"measurement": "compound remaining at 60 minutes", "setting": "[1]", "result": "40–60%"}, {"measurement": "inhibition of EP4 receptor", "setting": "EP4 receptor", "result": "without affecting"}, {"measurement": "inhibition of EP4 receptor", "setting": "EP4 receptor; listed as 1", "result": "no inhibition"}, {"measurement": "compound remaining at 60 minutes", "setting": "[2]", "result": "40–60%"}, {"measurement": "inhibition of β2-Adrenergic receptor", "setting": "β2-Adrenergic receptors", "result": "without affecting"}, {"measurement": "inhibition of β2-Adrenergic receptor", "setting": "β2-Adrenergic receptors; listed as 1", "result": "no inhibition"}, {"measurement": "compound found in brain samples", "setting": "[3]; 5mg/kg ip", "result": "no detectable amount"}, {"measurement": "compound found in brain samples", "setting": "[3]; 10 mg/kg oral gavage", "result": "no detectable amount"}, {"measurement": "solubility", "setting": "[4]", "result": 145, "unit": "µM"}, {"measurement": "Schild regression slope", "setting": "EP2 receptor", "result": 1.2}]}
{"smiles": "COc1cc(NS(=O)(=O)c2ccc(NC(=S)NC(=O)/C=C/c3ccc(F)cc3)cc2)ncn1", "note": "[compound 6]", "values": [{"measurement": "compound remaining at 60 minutes", "setting": "[1]", "result": "40–60%"}, {"measurement": "compound remaining at 60 minutes", "setting": "[2]", "result": "40–60%"}]}
